Values belong to the molecule of their own block, whether it stands above or below them.
Tests used:
Format in all cases: physicochemical
[1] = Physical stability of BCD solutions in gel vehicle stored at 5° C.; conditions: for Results after storage at 5° C.: monitored weekly for two weeks
Procedure: Different solutions according to Table 1 were made with varying concentrations of beta-cyclodextrin (BCD). The solutions of BCD were maintained at 5° C. monitored weekly for two weeks for signs of crystal or precipitate formation.

[2] = Physical stability / stable solubility of metronidazole in gel vehicle containing 0.5% BCD at 5° C.; conditions: for Result at 5° C., 1 week: BCD 0.5 % w/w, gel vehicle
Procedure: Different concentrations of metronidazole were prepared with the gel vehicle of Example 1 containing 0.5% BCD. The metronidazole (MTZ)/BCD solutions were maintained at 5° C. for one week.

[3] = Physical stability of 1.0% metronidazole gel solutions with BCD and niacinamide at 5° C.
[4] = Physical stability of 1.0% metronidazole gel solutions with niacin at 5° C.; conditions: MTZ 1.0 % w/w, pH 5.0+/−0.15, gel
Procedure: The pH was adjusted to 5.0+/−0.15 with trolamine. The solutions were maintained at 5° C. for one week to observe evidence of precipitation or crystal formation.

[5] = Physical stability of 1% metronidazole solutions with 0.5% niacin and varying BCD at 5° C.; conditions: for Results, 5° C., 1 week: MTZ 1.0 % w/w, niacin 0.5 % w/w, pH 5.0+/−0.15
Procedure: The solutions were maintained at 5° C. for one week to observe for crystal or precipitate formation.

[6] = Physical stability of 1.0% metronidazole gel solutions with BCD and niacinamide at 5° C.; conditions: Metronidazole 1.0 % w/w
Procedure: Various gel solutions of Table 1 were prepared with a concentration of 1.0% metronidazole and containing either 0.5% or 1.0% BCD and differing concentrations of niacinamide. The gels were maintained at 5° C. for one week to observe for precipitate or crystal formation.

[7] = BCD at its maximum soluble aqueous concentration (0.5%), 5° C.

saturated BCD solubility in the aqueous solutions ([1]; 5° C., aqueous solution such as gel): about 0.5%
Results after storage at 5° C. ([1]; BCD 0.5 % w/w in gel vehicle of Table 1): Clear after 2 weeks
Results after storage at 5° C. ([1]; BCD 0.6 % w/w in gel vehicle of Table 1): Crystals formed after 2 weeks
Results after storage at 5° C. ([1]; BCD 0.7 % w/w in gel vehicle of Table 1): Crystals at one week
Results after storage at 5° C. ([1]; BCD 0.9 % w/w in gel vehicle of Table 1): Crystals at one week
Results after storage at 5° C. ([1]; BCD 1.0 % w/w in gel vehicle of Table 1): Crystals at one week
Results after storage at 5° C. ([1]; BCD 1.2 % w/w in gel vehicle of Table 1): Crystals at one week
Results after storage at 5° C. ([1]; BCD 1.4 % w/w in gel vehicle of Table 1): Crystals at one week
Results after storage at 5° C. ([1]; BCD 1.5 % w/w in gel vehicle of Table 1): Crystals at one week
SMILES: OC[C@H]1O[C@@H]2O[C@H]3[C@H](O)[C@@H](O)[C@@H](O[C@H]4[C@H](O)[C@@H](O)[C@@H](O[C@H]5[C@H](O)[C@@H](O)[C@@H](O[C@H]6[C@H](O)[C@@H](O)[C@@H](O[C@H]7[C@H](O)[C@@H](O)[C@@H](O[C@H]8[C@H](O)[C@@H](O)[C@@H](O[C@H]1[C@H](O)[C@H]2O)O[C@@H]8CO)O[C@@H]7CO)O[C@@H]6CO)O[C@@H]5CO)O[C@@H]4CO)O[C@@H]3CO [BCD, beta-cyclodextrin]

increase of stable solubility of MTZ by BCD [2, 7]: 0.1%
stable solubility of MTZ in aqueous solution with BCD [2, 7]: 0.8%
Result at 5° C., 1 week ([2]; MTZ 0.7 % w/w): Clear
Result at 5° C., 1 week ([2]; MTZ 0.8 % w/w): Clear
Result at 5° C., 1 week ([2]; MTZ 0.9 % w/w): Crystals formed
stable solubility of MTZ in aqueous solution, unaided ([2]; aqueous solution such as a gel, 5° C., without solubility enhancer): 0.7%
stable solubility of metronidazole in the gel vehicle ([2]; gel vehicle containing 0.5% BCD, 5° C.): about 0.8 % w/w
MTZ aqueous solubility with niacinamide [3]: 1%
increase of MTZ aqueous solubility by niacinamide ([3]; 3% concentration of niacinamide): 0.3%
solubility of MTZ above its unaided solubility with BCD and niacinamide combined ([3]; BCD at amount expected to yield 0.1% increase plus niacinamide at one third of the amount that raises solubility by 0.3%): 0.3%
Results, 5° C., 1 week ([4]; niacin 0.10 % w/w): Crystals formed
Results, 5° C., 1 week ([4]; niacin 0.15 % w/w): Crystals formed
Results, 5° C., 1 week ([4]; niacin 0.25 % w/w): Crystals formed
Results, 5° C., 1 week ([4]; niacin 0.5 % w/w, seven out of eight samples showed crystal formation): Clear/Crystals formed*
Results, 5° C., 1 week ([4]; niacin 1.0 % w/w): Clear
Results, 5° C., 1 week ([4]; niacin 1.2 % w/w): Clear
Results, 5° C., 1 week ([4]; niacin 1.5 % w/w): Clear
Results, 5° C., 1 week ([4]; niacin 1.8 % w/w): Clear
Results, 5° C., 1 week ([4]; niacin 2.0 % w/w): Clear
Results, 5° C., 1 week ([4]; niacin […] w/w): Clear
solubility of MTZ with niacin and BCD combined ([5]; 0.5% niacin combined with 0.5% BCD, pH of about 5): 1%
Results, 5° C., 1 week ([5]; BCD 0.2 % w/w): Crystals formed
Results, 5° C., 1 week ([5]; BCD 0.3 % w/w): Crystals formed
Results, 5° C., 1 week ([5]; BCD 0.5 % w/w): Clear
Results at 5° C., 1 week ([6]; BCD 0.5 % w/w, niacinamide 0.5 % w/w): Crystals formed
Results at 5° C., 1 week ([6]; BCD 0.5 % w/w, niacinamide 1.0 % w/w): Clear
Results at 5° C., 1 week ([6]; BCD 0.5 % w/w, niacinamide 2.0 % w/w): Clear
Results at 5° C., 1 week ([6]; BCD 1.0 % w/w, niacinamide 0.5 % w/w): Precipitate formed
Results at 5° C., 1 week ([6]; BCD 1.0 % w/w, niacinamide 1.0 % w/w): Clear
Results at 5° C., 1 week ([6]; BCD 1.0 % w/w, niacinamide 2.0 % w/w): Clear
SMILES: Cc1ncc([N+](=O)[O-])n1CCO [MTZ, 1-(2-hydroxyethyl)-2-methyl-5-nitroimidazole]

concentration of niacinamide required to obtain a stable aqueous gel solution of 1.0% metronidazole ([3]; niacinamide alone, no BCD): about 3%
SMILES: NC(=O)c1cccnc1 [niacinamide]

From patent US7348317B2, “Aqueous compositions containing metronidazole” (Dow Pharmaceutical Sciences, priority 2001, dated 2008)
